Test results from patent publication US20180036289A1 (Gilead Sciences, Inc., priority 2016, published 2018).

Legend:
Assay in all cases: Cell proliferation assay (ATPlite), drug with vs without cobicistat
Type in all cases: cell-based
A-172 = A-172 cell line; 120 hours incubation
Procedure: (§1) All cell lines were obtained from the American Type Culture Collection (ATCC) Manassas, Va. (US). Master and working cell banks (MCB and WCB) were prepared by subculturing in ATCC-recommended media and freezing protocols (www.atcc.org). Cell line stocks for the assays were prepared from the WCB. The MCB, WCBs and assay stocks were prepared within respectively 3, 6 and 9 passages of the ATCC vial.
(§2) Solid powders of reference compounds were weighed on a calibrated balance and dissolved in 100% DMSO. DMSO samples were stored at room temperature. At the day of the experiment, the compound stock was diluted in 3.16 fold steps in 100% DMSO to obtain a 9-point dilution series. This was further diluted 31.6 times in 20 mM sterile Hepes buffer pH 7.4. A volume of 5 μl was transferred to the cells to generate a test concentration range from 3.16×10^−5M to 3.16×10^−9 M in duplicate. The final DMSO concentration during incubation was […] in all wells.
(§3) An assay stock was thawed and diluted in its ATCC recommended medium and dispensed in a 384-well plate, depending on the cell line used, at a concentration of 200-3200 cells per well in 45 μl medium. For each used cell line the optimal cell density is used. The margins of the plate were filled with phosphate-buffered saline. Plated cells were incubated in a humidified atmosphere of 5% CO2 at 37° C. After 24 hours, 5 μl of compound dilution was added and plates were further incubated for another 120 hours. After 120 hours, 25 μl of ATPlite 1Step™ (PerkinElmer) solution was added to each well, and subsequently shaken for 2 minutes. After 10 minutes of incubation in the dark, the luminescence was recorded on an Envision multimode reader (PerkinElmer).
(§4) IC50s were calculated by non-linear regression using IDBS XLfit 5. The percentage growth after 120 h (%-growth) was calculated as follows: 100%×(luminescencet=120h/luminescenceuntreated,t=120h). This was fitted to the ^10log compound concentration (conc) by a 4-parameter logistics curve: %−growth=bottom+(top−bottom)/(1+10^(log IC50-conc)*hill)), where hill is the Hill-coefficient, and bottom and top the asymptotic minimum and maximum cell growth that the compound allows in that assay.

A-204 = A-204 cell line; 120 hours incubation
Procedure: as §1, §2, §3, §4

A-427 = A-427 cell line; 120 hours incubation
Procedure: as §1, §2, §3, §4

A-498 = A-498 cell line; 120 hours incubation
Procedure: as §1, §2, §3, §4

A-549 = A-549 cell line; 120 hours incubation
Procedure: as §1, §2, §3, §4

A375 = A375 cell line; 120 hours incubation
Procedure: as §1, §2, §3, §4

A388 = A388 cell line; 120 hours incubation
Procedure: as §1, §2, §3, §4

ACHN = ACHN cell line; 120 hours incubation
Procedure: as §1, §2, §3, §4

AN3 CA = AN3 CA cell line; 120 hours incubation
Procedure: as §1, §2, §3, §4

BT-20 = BT-20 cell line; 120 hours incubation
Procedure: as §1, §2, §3, §4

BT-549 = BT-549 cell line; 120 hours incubation
Procedure: as §1, §2, §3, §4

CCRF-CEM = CCRF-CEM cell line; 120 hours incubation
Procedure: as §1, §2, §3, §4

COLO 205 = COLO 205 cell line; 120 hours incubation
Procedure: as §1, §2, §3, §4

DLD-1 = DLD-1 cell line; 120 hours incubation
Procedure: as §1, §2, §3, §4

Daoy = Daoy cell line; 120 hours incubation
Procedure: as §1, §2, §3, §4

FaDu = FaDu cell line; 120 hours incubation
Procedure: as §1, §2, §3, §4

HCT 116 = HCT 116 cell line; 120 hours incubation
Procedure: as §1, §2, §3, §4

K-562 = K-562 cell line; 120 hours incubation
Procedure: as §1, §2, §3, §4

MCF7 = MCF7 cell line; 120 hours incubation
Procedure: as §1, §2, §3, §4

MeWo = MeWo cell line; 120 hours incubation
Procedure: as §1, §2, §3, §4

NCI-H82 = NCI-H82 cell line; 120 hours incubation
Procedure: as §1, §2, §3, §4

PA-1 = PA-1 cell line; 120 hours incubation
Procedure: as §1, §2, §3, §4

RT4 = RT4 cell line; 120 hours incubation
Procedure: as §1, §2, §3, §4

SHP-77 = SHP-77 cell line; 120 hours incubation
Procedure: as §1, §2, §3, §4

SJCRH30 = SJCRH30 cell line; 120 hours incubation
Procedure: as §1, §2, §3, §4

SK-N-FI = SK-N-FI cell line; 120 hours incubation
Procedure: as §1, §2, §3, §4

SW948 = SW948 cell line; 120 hours incubation
Procedure: as §1, §2, §3, §4

U-2 OS = U-2 OS cell line; 120 hours incubation
Procedure: as §1, §2, §3, §4

U-87 MG = U-87 MG cell line; 120 hours incubation
Procedure: as §1, §2, §3, §4

VA-ES-BJ = VA-ES-BJ cell line; 120 hours incubation
Procedure: as §1, §2, §3, §4

Row | Compound | Fold change in IC50 (IC50 [Drug + Cobicistat]/IC50 [Drug]) (A-172) [fold] | Fold change in IC50 (IC50 [Drug + Cobicistat]/IC50 [Drug]) (A-204) [fold] | Fold change in IC50 (IC50 [Drug + Cobicistat]/IC50 [Drug]) (A-427) [fold] | Fold change in IC50 (IC50 [Drug + Cobicistat]/IC50 [Drug]) (A-498) [fold] | Fold change in IC50 (IC50 [Drug + Cobicistat]/IC50 [Drug]) (A-549) [fold] | Fold change in IC50 (IC50 [Drug + Cobicistat]/IC50 [Drug]) (A375) [fold] | Fold change in IC50 (IC50 [Drug + Cobicistat]/IC50 [Drug]) (A388) [fold] | Fold change in IC50 (IC50 [Drug + Cobicistat]/IC50 [Drug]) (ACHN) [fold] | Fold change in IC50 (IC50 [Drug + Cobicistat]/IC50 [Drug]) (AN3 CA) [fold] | Fold change in IC50 (IC50 [Drug + Cobicistat]/IC50 [Drug]) (BT-20) [fold] | Fold change in IC50 (IC50 [Drug + Cobicistat]/IC50 [Drug]) (BT-549) [fold] | Fold change in IC50 (IC50 [Drug + Cobicistat]/IC50 [Drug]) (CCRF-CEM) [fold] | Fold change in IC50 (IC50 [Drug + Cobicistat]/IC50 [Drug]) (COLO 205) [fold] | Fold change in IC50 (IC50 [Drug + Cobicistat]/IC50 [Drug]) (DLD-1) [fold] | Fold change in IC50 (IC50 [Drug + Cobicistat]/IC50 [Drug]) (Daoy) [fold] | Fold change in IC50 (IC50 [Drug + Cobicistat]/IC50 [Drug]) (FaDu) [fold] | Fold change in IC50 (IC50 [Drug + Cobicistat]/IC50 [Drug]) (HCT 116) [fold] | Fold change in IC50 (IC50 [Drug + Cobicistat]/IC50 [Drug]) (K-562) [fold] | Fold change in IC50 (IC50 [Drug + Cobicistat]/IC50 [Drug]) (MCF7) [fold] | Fold change in IC50 (IC50 [Drug + Cobicistat]/IC50 [Drug]) (MeWo) [fold] | other results
1 | Cc1nc(Nc2ncc(C(=O)Nc3c(C)cccc3Cl)s2)cc(N2CCN(CCO)CC2)n1 [dasatinib] | 1.7 | 2.2 | 5.8 | 1.4 | 1.0 | 1.3 | 1.9 | 2.8 | 1.2 | 1.4 | 1.5 | 1.3 | 1.2 | 1.4 | 3.2 | 2.1 | 3.4 | 1.1 | 1.9 | 1.0 | Fold change in IC50 (IC50 [Drug + Cobicistat]/IC50 [Drug]) (NCI-H82): 1.1 fold; Fold change in IC50 (IC50 [Drug + Cobicistat]/IC50 [Drug]) (PA-1): 2.6 fold; Fold change in IC50 (IC50 [Drug + Cobicistat]/IC50 [Drug]) (RT4): 2.5 fold; Fold change in IC50 (IC50 [Drug + Cobicistat]/IC50 [Drug]) (SHP-77): 1.4 fold; Fold change in IC50 (IC50 [Drug + Cobicistat]/IC50 [Drug]) (SJCRH30): 1.4 fold; Fold change in IC50 (IC50 [Drug + Cobicistat]/IC50 [Drug]) (SK-N-FI): 2.0 fold; Fold change in IC50 (IC50 [Drug + Cobicistat]/IC50 [Drug]) (SW948): 1.2 fold; Fold change in IC50 (IC50 [Drug + Cobicistat]/IC50 [Drug]) (U-2 OS): 4.0 fold; Fold change in IC50 (IC50 [Drug + Cobicistat]/IC50 [Drug]) (U-87 MG): 1.1 fold; Fold change in IC50 (IC50 [Drug + Cobicistat]/IC50 [Drug]) (VA-ES-BJ): 3.1 fold
2 | CC(=O)O[C@@]12CO[C@@H]1C[C@H](O)[C@@]1(C)C(=O)[C@H](O)C3=C(C)[C@@H](OC(=O)[C@H](O)[C@@H](NC(=O)OC(C)(C)C)c4ccccc4)C[C@@](O)([C@@H](OC(=O)c4ccccc4)[C@H]21)C3(C)C [docetaxel] | 2.0 | 5.7 | 1.3 | 4.2 | 1.1 | 2.8 | 6.0 | 4.6 | 2.1 | 1.7 | 1.4 | 3.6 | 3.9 | 2.7 | 6.4 | 1.7 | 1.9 | 3.2 | 4.1 | 2.3 | Fold change in IC50 (IC50 [Drug + Cobicistat]/IC50 [Drug]) (NCI-H82): 2.2 fold; Fold change in IC50 (IC50 [Drug + Cobicistat]/IC50 [Drug]) (PA-1): 5.2 fold; Fold change in IC50 (IC50 [Drug + Cobicistat]/IC50 [Drug]) (RT4): 4.4 fold; Fold change in IC50 (IC50 [Drug + Cobicistat]/IC50 [Drug]) (SHP-77): 3.5 fold; Fold change in IC50 (IC50 [Drug + Cobicistat]/IC50 [Drug]) (SJCRH30): 4.1 fold; Fold change in IC50 (IC50 [Drug + Cobicistat]/IC50 [Drug]) (SK-N-FI): 5.1 fold; Fold change in IC50 (IC50 [Drug + Cobicistat]/IC50 [Drug]) (SW948): 3.5 fold; Fold change in IC50 (IC50 [Drug + Cobicistat]/IC50 [Drug]) (U-2 OS): 4.3 fold; Fold change in IC50 (IC50 [Drug + Cobicistat]/IC50 [Drug]) (U-87 MG): 2.0 fold; Fold change in IC50 (IC50 [Drug + Cobicistat]/IC50 [Drug]) (VA-ES-BJ): 5.0 fold
3 | COc1cccc2c1C(=O)c1c(O)c3c(c(O)c1C2=O)C[C@@](O)(C(=O)CO)C[C@@H]3O[C@H]1C[C@H](N)[C@H](O)[C@H](C)O1 [doxorubicin] | 2.5 | 2.5 | 1.5 | 1.2 | 0.8 | 2.2 | 1.7 | 2.2 | 2.0 | 1.0 | 1.5 | 2.7 | 2.3 | 1.4 | 1.6 | 1.7 | 1.8 | 2.5 | 1.9 | 2.1 | Fold change in IC50 (IC50 [Drug + Cobicistat]/IC50 [Drug]) (NCI-H82): 2.6 fold; Fold change in IC50 (IC50 [Drug + Cobicistat]/IC50 [Drug]) (PA-1): 3.0 fold; Fold change in IC50 (IC50 [Drug + Cobicistat]/IC50 [Drug]) (RT4): 2.7 fold; Fold change in IC50 (IC50 [Drug + Cobicistat]/IC50 [Drug]) (SHP-77): 2.5 fold; Fold change in IC50 (IC50 [Drug + Cobicistat]/IC50 [Drug]) (SJCRH30): 2.2 fold; Fold change in IC50 (IC50 [Drug + Cobicistat]/IC50 [Drug]) (SK-N-FI): 2.0 fold; Fold change in IC50 (IC50 [Drug + Cobicistat]/IC50 [Drug]) (SW948): 2.5 fold; Fold change in IC50 (IC50 [Drug + Cobicistat]/IC50 [Drug]) (U-2 OS): 3.0 fold; Fold change in IC50 (IC50 [Drug + Cobicistat]/IC50 [Drug]) (U-87 MG): 0.7 fold; Fold change in IC50 (IC50 [Drug + Cobicistat]/IC50 [Drug]) (VA-ES-BJ): 2.8 fold
